Experimental data from article PMC11274883, “Anticancer Effect of Pt^[sequence], Pt^II5MESS, Pt^II56MESS and Their Platinum(IV)-Dihydroxy Derivatives against Triple-Negative Breast Cancer and Cisplatin-Resistant Colorectal Cancer” (Cancers, 2024).

Key:
Assay type in all cases: cell-based
A2780 = experiment: WST-1 cytotoxicity, 72 h; conditions: A2780, 72 h, mean ± SEM
Method: Cells were seeded in 96-well flat-bottom culture plates at a concentration of 1000 cells per well. […] After 72 h, the medium was removed and replaced with new medium. The cell viability reagent WST-1 (10 µL, Roche Diagnostics, Indianapolis, IN, USA) was added to each well. After an hour, the absorbance was measured at 450 nm using a versatile microplate reader (Bio-strategy, Campbellfield, VIC, Australia). Three separate experiments were performed, each with n = 3 replicates. GraphPad prism 10 was used to calculate apparent IC50 values using the nonlinear regression model Y = Bottom + (Top-Bottom)/(1 + 10^(X-LogIC50)) where Top and bottom are plateaus in the y-axis (% survival).

HT29 spheroids = experiment: 3D bioprinted spheroid cytotoxicity (WST-1); conditions: 72 h, mean ± SEM
Excerpt: (§1) To evaluate the cytotoxic effect of platinum(II) and (IV) complexes in 3D cell culture, MDA−MB−231 or HT29 cells were used to bioprint networks or spheroids with the non-contact drop-on-demand 3D RASTRUM bioprinter (Inventia Life Science, Alexandria, NSW, Australia). The 3D cultures use two constituents: bioink and activator. Cell pellets (2 × 10^6 cells) were resuspended in an activator reagent which forms an instant gel after its addition to the bioink by the bioprinter. The 3D large plug cell model with polyethylene glycol bioinks formulated to mimic the properties of in vivo tissue were chosen as follows. Matrix Px02.31 (activator F177 and bioink F242 with RGD: Fibronectin) was used for MDA−MB−231 3D embedded networks, Px02.00 (activator F177 and bioink F119 without RGD additives, Table S1) was used for MDA−MB−231 spheroids and matrix #Px02.09 (activator F177 and bioink F236 with adhesion peptides including, RGD: Fibronectin, and GFOGER: collagen type I to recapitulate rich in vivo tissue extracellular environments) was used for HT29 spheroids (Inventia Life Science) (Table S1). Each cell line was printed at 10,000 cells/well and loaded with the bioink fluids into the selected printer cartridge. After the automated priming of all fluids into the printer nozzles, each cell line was individually printed on tissue culture plates (Nunc^TM MicroWell^TM 96-Well, Nunclon Delta-Treated, Flat-Bottom Microplate, ThermoFisher #167008), with RASTRUM creating the 3D Large Plug across the 96-well plate. Following completion of the print run, 200 μL DMEM culture medium was added to each well using multichannel pipettes. The plate was then incubated for 7 days (humidified incubator with 5% CO2 at 37 °C) for compact and homogenous spheroid formation before the cytotoxicity assay. When the spheroids developed, post-7-day incubation, media was removed and replaced with 100 µL DMEM. […] Cytotoxicity was then assessed using the WST-1 assay as previously described in Section 2.3.

MDA−MB−231 spheroids = experiment: 3D bioprinted spheroid cytotoxicity (WST-1); conditions: 72 h, mean ± SEM
Excerpt: as §1

MDA−MB−231 cells = experiment: Western blot protein expression; conditions: MDA−MB−231, IC50, 72 h
Method: (§2) Protein extraction was then performed on ice. Media were collected in Eppendorf tubes, and centrifuged at 500× g for 5 min at 4 °C. Meanwhile, 200 µL of lysis RIPA buffer, made up of 150 mM NaCl, 50 mM Tris-HCl, pH 8.0, 0.1% Triton X-100, 0.5% sodium deoxycholate, 0.1% SDS and 1 mM sodium orthovanadate, was added to each well, the cells were scrapped into the buffer, and added to the media-derived pellets. The tubes were placed on the shaker for 10 min at 4 °C. Then, cell extracts were centrifuged at 12,000× g for 15 min at 4 °C, and the supernatants (containing the proteins) were collected. The Bio-Rad-DC protein assay (Bio-Rad, Hercules, CA, USA) was used to assess protein content. Laemmli protein sample buffer (4×) with β-mercaptoethanol (9%) was used to prepare a final protein concentration of 20 µg. The samples were then heated at 100 °C for 5 min. A final volume of 30 µL of each sample was added per well and subjected to SDS-PAGE using Bolt 4–12% Bis-Tris gel (Thermo Fisher, Eugene, OR, USA) at 80 V for 30 min and then 120 V for 60 min with PageRuler™ Prestained Protein or SeeBlue Prestained Protein Ladder (Thermo Fisher, Eugene, OR, USA). Proteins were subsequently transferred to a 0.2 µm PVDF membrane (Amersham, Cytiya) using a semi-dry blot transfer. The membrane was then blocked in 5% BSA in TBST, for 1 h and probed overnight at 4 °C with primary antibodies against several cell proliferation, apoptotic, anti-apoptotic, microtubule and autophagic protein markers listed in Table S7 as per the manufacturer’s protocol. The primary antibody was then removed, washed three times for 10 min with TBST and then membranes were treated with either mouse or rabbit HRP-coupled secondary antibodies (1/3000) for 1 h and 30 min. Protein band detection was then performed using the chemiluminescence ECL kit (Thermo Fisher, Eugene, OR, USA). Blot images were obtained using the Odyssey® FC imaging system (LI-COR Biosciences, Lincoln, NE, USA) and band intensities were quantified relatively to glyceraldehyde-3-phosphate dehydrogenase (GAPDH) and then normalised each replicate gel to its corresponding no treatment control using the ImageJ v1.53t software (National Institutes of Health, Bethesda, MD, USA). Each marker results from the same experiment or parallel experiment where the gels were processed in parallel. Three independent experiments per marker were conducted.

HT29 cells = experiment: Western blot protein expression; conditions: HT29, IC50, 72 h
Method: as §2

[1] = representative blot Figure S30G
[2] = representative blot Figure S30H

Structure (SMILES): N.N.[Cl][Pt][Cl] [Cisplatin, cisplatin]
- IC50 (A2780): 21.5 ± 1.55 µM
- IC50 (HT29 spheroids): 445 ± 5.09 µM
- IC50 (MDA−MB−231 spheroids): 48.5 ± 1.62 µM
- LC3B protein expression level increase (MDA−MB−231 cells; Figure 12D): up to 3 folds
- β-actin/GAPDH normalized to control (1) (MDA−MB−231 cells; representative blot Figure S24A): 0.5805
- β-tubulin/GAPDH normalized to control (1) (MDA−MB−231 cells; representative blot Figure S24B): 1.195
- α-tubulin/GAPDH normalized to control (1) (MDA−MB−231 cells; representative blot Figure S24C): 0.9486
- p-AKT/AKT/GAPDH normalized to control (1) (MDA−MB−231 cells; representative blot Figure S25A): 0.6181
- p-ERK/ERK/GAPDH normalized to control (1) (MDA−MB−231 cells; representative blot Figure S25B): 0.2123
- p53/GAPDH normalized to control (1) (MDA−MB−231 cells; representative blot Figure S25C): 1.585
- p21/GAPDH normalized to control (1) (MDA−MB−231 cells; representative blot Figure S25D): 1.351
- Bax/GAPDH normalized to control (1) (MDA−MB−231 cells; representative blot Figure S26A): 1.836
- Bcl2/GAPDH normalized to control (1) (MDA−MB−231 cells; representative blot Figure S26B): 0.7529
- Cytochrome C/GAPDH normalized to control (1) (MDA−MB−231 cells; representative blot Figure S26C): 2.371
- Procaspase 8/GAPDH normalized to control (1) (MDA−MB−231 cells; representative blot Figure S26D): 0.5682
- Cleaved BID/GAPDH normalized to control (1) (MDA−MB−231 cells; representative blot Figure S26E): 11.07
- Procaspase 9/GAPDH normalized to control (1) (MDA−MB−231 cells; representative blot Figure S26F): 1.122
- Procaspase 3/GAPDH normalized to control (1) (MDA−MB−231 cells; representative blot Figure S26G): 0.8253
- PARP-1/GAPDH normalized to control (1) (MDA−MB−231 cells; representative blot Figure S26H): 0.7867
- Beclin1/GAPDH normalized to control (1) (MDA−MB−231 cells; representative blot Figure S27A): 0.9211
- ATG5/GAPDH normalized to control (1) (MDA−MB−231 cells; representative blot Figure S27B): 0.8216
- ATG16L1/GAPDH normalized to control (1) (MDA−MB−231 cells; representative blot Figure S27C): 0.9512
- ATG9A/GAPDH normalized to control (1) (MDA−MB−231 cells; representative blot Figure S27D): 0.6551
- ATG4B/GAPDH normalized to control (1) (MDA−MB−231 cells; representative blot Figure S27E): 1.551
- LC3B/GAPDH normalized to control (1) (MDA−MB−231 cells; representative blot Figure S27F): 1.368
- β-actin/GAPDH normalized to control (1) (HT29 cells; representative blot Figure S28A): 0.6345
- β-tubulin/GAPDH normalized to control (1) (HT29 cells; representative blot Figure S28B): 0.8003
- α-tubulin/GAPDH normalized to control (1) (HT29 cells; representative blot Figure S28C): 0.8201
- p-AKT/AKT/GAPDH normalized to control (1) (HT29 cells; representative blot Figure S29A): 0.288
- p-ERK/ERK/GAPDH normalized to control (1) (HT29 cells; representative blot Figure S29B): 1.125
- p53/GAPDH normalized to control (1) (HT29 cells; representative blot Figure S29C): 0.9507
- p21/GAPDH normalized to control (1) (HT29 cells; representative blot Figure S29D): 2.964
- Bax/GAPDH normalized to control (1) (HT29 cells; representative blot Figure S30A): 1.81
- Bcl2/GAPDH normalized to control (1) (HT29 cells; representative blot Figure S30B): 0.5659
- Cyt C/GAPDH normalized to control (1) (HT29 cells; representative blot Figure S30C): 2.419
- Procaspase 8/GAPDH normalized to control (1) (HT29 cells; representative blot Figure S30D): 0.004029
- Cleaved BID/GAPDH normalized to control (1) (HT29 cells; representative blot Figure S30E): 2.527
- Procaspase 9/GAPDH normalized to control (1) (HT29 cells; representative blot Figure S30F): 0.6388
- Cleaved caspase 3/GAPDH normalized to control (1) (HT29 cells; [1]): 11.81
- Procaspase 3/GAPDH normalized to control (1) (HT29 cells; [1]): 1.2
- Cleaved PARP-1/GAPDH normalized to control (1) (HT29 cells; [2]): 3.484
- PARP-1/GAPDH normalized to control (1) (HT29 cells; [2]): 0.8236
- Beclin1/GAPDH normalized to control (1) (HT29 cells; representative blot Figure S31A): 3.89
- ATG5/GAPDH normalized to control (1) (HT29 cells; representative blot Figure S31B): 1.193
- ATG16L1/GAPDH normalized to control (1) (HT29 cells; representative blot Figure S31C): 1.173
- ATG9A/GAPDH normalized to control (1) (HT29 cells; representative blot Figure S31D): 2.212
- ATG4B/GAPDH normalized to control (1) (HT29 cells; representative blot Figure S31E): 1.101
- LC3B/GAPDH normalized to control (1) (HT29 cells; representative blot Figure S31F): 3.233
